Molecules are shown by their SMILES.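 Tested at 5 concentrations; 48 h exposure; 96-well plates; endpoints linearly interpolated, else capped at highest concentration. GI50 is the concentration that inhibits growth by half.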 Calls of active or inactive are those of the source. Cut-off read from the data, not from the text of the source: active = GI50 up to about 1.1 µM and inactive = higher.

Some test systems named below: SK-MEL-2; MDA-MB-231; SK-MEL-5; PC-3; HL-60; UACC-62; HCT-116; T47D; OVCAR-3; A549; K562; NCI-H226; KM12; COLO 205; NCI/ADR-RES; SF-539; TK-10; NCI-H23; RXF 393.
Common to all, as to assay: growth of human tumour cells (NCI), 48 h

On to `O=C(O)CN1CCN2CCCCCCCCN(CC1)CCN(CC(=O)O)CC2`, for which the GI50 in the test with SK-MEL-2 is > 100 µM (inactive); in the test on MDA-MB-231, > 100 µM (inactive); in the test on SK-MEL-5, > 100 µM (inactive); with PC-3, > 100 µM (inactive); in the test on HL-60, 5.08 µM (inactive); in the test with UACC-62, > 100 µM (inactive). For the same compound, the GI50 with HCT-116, in the test on T47D, with OVCAR-3, in the test with A549, in the test on K562 and in the test with NCI-H226 was > 100 µM (inactive) in each case. The GI50 in the test on KM12 was 75.2 µM (inactive); in the test on COLO 205 it was > 100 µM (inactive); in the test with NCI/ADR-RES, > 100 µM (inactive); in the test with SF-539 it was > 100 µM (inactive); in the test on TK-10 it was > 100 µM (inactive).

As to `CCOC(=O)c1cc(=O)c2cccc3c2n1CCS3`, the GI50 in the test on SK-MEL-2, in the test on MDA-MB-231, with SK-MEL-5, with PC-3, in the test on HL-60 and with NCI-H23 was > 100 µM (inactive) in each case. Also, the GI50 with UACC-62, in the test with HCT-116, with T47D, in the test on OVCAR-3, in the test on A549 and with NCI-H226 was > 100 µM (inactive) in each case. For the same compound, the GI50 in the test on KM12, with COLO 205, in the test with NCI/ADR-RES, with SF-539 and in the test on TK-10 was > 100 µM (inactive) in each case.

Regarding `COCO[C@@H]1C[C@H]2C(=O)Nc3ccccc3C(=O)N2C1`, the GI50 is 46.6 µM (inactive) in the test with SK-MEL-2; > 100 µM (inactive) with MDA-MB-231; 24.1 µM (inactive) with SK-MEL-5; 43.8 µM (inactive) with PC-3; 51.4 µM (inactive) in the test on NCI-H23; > 100 µM (inactive) with UACC-62. Besides, the GI50 with HCT-116 is 85.3 µM (inactive); with T47D, 69.2 µM (inactive); in the test with A549, > 100 µM (inactive); in the test with RXF 393, 20.6 µM (inactive); with NCI-H226, 3.91 µM (inactive); with KM12, > 100 µM (inactive). Further, the GI50 was 29.3 µM (inactive) with COLO 205, 79.1 µM (inactive) in the test with NCI/ADR-RES, 38.7 µM (inactive) with SF-539 and 71.4 µM (inactive) in the test with TK-10.

`O=C(O)C(Cc1c[nH]cn1)N1C(=O)c2ccccc2C1=O` (stereo not drawn): the GI50 with SK-MEL-2 was 6.19 µM (inactive); in the test on MDA-MB-231, 38 µM (inactive); with SK-MEL-5 it was > 100 µM (inactive); in the test with PC-3, 18.9 µM (inactive); with NCI-H23, > 100 µM (inactive); in the test with UACC-62 it was > 100 µM (inactive). The GI50 is > 100 µM (inactive) in the test on HCT-116; > 100 µM (inactive) in the test with T47D; 50.5 µM (inactive) in the test on OVCAR-3; > 100 µM (inactive) in the test on A549; > 100 µM (inactive) in the test with K562; > 100 µM (inactive) in the test on RXF 393. Moreover, the GI50 with NCI-H226, in the test on KM12, in the test on COLO 205, in the test on NCI/ADR-RES and with TK-10 was > 100 µM (inactive) throughout.

In the case of `c1ccc(CN2CCCN3CCN(CCCN(Cc4ccccc4)CC3)CC2)cc1`, the GI50 is 22.2 µM (inactive) in the test on SK-MEL-2; 38.2 µM (inactive) with MDA-MB-231; 19.3 µM (inactive) in the test with SK-MEL-5; 30.5 µM (inactive) in the test with PC-3; 24.7 µM (inactive) in the test on HL-60; 34.1 µM (inactive) with NCI-H23. In addition, the GI50 in the test on UACC-62 was 35.1 µM (inactive); with HCT-116, 35.2 µM (inactive); in the test with T47D it was 35.7 µM (inactive); in the test with OVCAR-3 it was 27.2 µM (inactive); in the test with A549 it was 69.5 µM (inactive); in the test with K562 it was 32 µM (inactive). Moreover, the GI50 in the test on RXF 393 was > 100 µM (inactive); in the test with NCI-H226 it was 73.6 µM (inactive); in the test on KM12, 31.6 µM (inactive); with COLO 205, 25.3 µM (inactive); in the test with NCI/ADR-RES, > 100 µM (inactive); in the test with SF-539, 87.7 µM (inactive). Moreover, the GI50 in the test with TK-10 was 55.6 µM (inactive).

In the case of `N#Cc1cc(-c2nc3ccc(F)cc3s2)ccc1N`, the GI50 in the test with MDA-MB-231, in the test on SK-MEL-5, in the test on PC-3, with HL-60, with NCI-H23 and with UACC-62 was > 100 µM (inactive) each time. Besides, the GI50 in the test with HCT-116 is 33.5 µM (inactive); in the test with T47D, > 100 µM (inactive); with OVCAR-3 it was > 100 µM (inactive); in the test on A549, > 100 µM (inactive); in the test with K562, 80.4 µM (inactive); in the test with RXF 393, > 100 µM (inactive). For the same compound, the GI50 in the test on NCI-H226 is > 100 µM (inactive); in the test on KM12 it was > 100 µM (inactive); with COLO 205, 28.9 µM (inactive); in the test with NCI/ADR-RES, > 100 µM (inactive); in the test with SF-539 it was 51.1 µM (inactive); with TK-10, > 100 µM (inactive).

Take `NC(CC(=O)Nc1cc(C(F)(F)F)ccc1Cl)=NO`: the GI50 in the test with SK-MEL-2, in the test on MDA-MB-231, in the test on SK-MEL-5, in the test with PC-3, with HL-60 and in the test with NCI-H23 was > 100 µM (inactive) each time. Moreover, the GI50 in the test with UACC-62, in the test on HCT-116, in the test on T47D, in the test on OVCAR-3, with A549 and in the test on K562 was > 100 µM (inactive) in each case. Besides, the GI50 in the test with RXF 393, in the test on NCI-H226, in the test on KM12, in the test on COLO 205, in the test with NCI/ADR-RES and with SF-539 was > 100 µM (inactive) in each case. In addition, the GI50 with TK-10 is > 100 µM (inactive).

On to `C/C(=N\c1c2ccccc2nc2ccccc12)N(C)C`, for which the GI50 was 20 µM (inactive) in the test on SK-MEL-2; 14.6 µM (inactive) in the test with MDA-MB-231; 14.6 µM (inactive) in the test on SK-MEL-5; 14.6 µM (inactive) in the test with PC-3; 3.28 µM (inactive) in the test with HL-60; 15.2 µM (inactive) in the test on NCI-H23. In addition, the GI50 was 15.2 µM (inactive) in the test with UACC-62; 10.4 µM (inactive) in the test on HCT-116; 20.5 µM (inactive) with T47D; 14.4 µM (inactive) in the test with OVCAR-3; 28.2 µM (inactive) in the test with A549; 3.91 µM (inactive) in the test with K562. In addition, the GI50 was 23.8 µM (inactive) in the test with RXF 393; 11.9 µM (inactive) in the test on NCI-H226; 12.6 µM (inactive) in the test on COLO 205; 16.3 µM (inactive) in the test with NCI/ADR-RES; 21.9 µM (inactive) in the test on TK-10.

With `Cc1ccc(-[n+]2cc([O-])on2)cc1`, the GI50 with SK-MEL-2, in the test with MDA-MB-231, in the test on SK-MEL-5, in the test with PC-3, with HL-60 and with NCI-H23 was > 100 µM (inactive) each time. Also, the GI50 with UACC-62, in the test with HCT-116, in the test on T47D, with OVCAR-3, in the test on A549 and in the test with K562 was > 100 µM (inactive) each time. In addition, the GI50 was > 100 µM (inactive) in the test on RXF 393; 10.1 µM (inactive) in the test on NCI-H226; > 100 µM (inactive) with KM12; > 100 µM (inactive) in the test with NCI/ADR-RES; > 100 µM (inactive) in the test on TK-10.

As to `CN(C)Cc1ccc(-c2cc3onc(-c4ccccc4)c3c(=O)n2C)cc1`, the GI50 with SK-MEL-2 was 27.5 µM (inactive); with MDA-MB-231, 28.5 µM (inactive); in the test on SK-MEL-5 it was 17.9 µM (inactive); with PC-3, 39.8 µM (inactive); in the test on HL-60, 0.711 µM (active); in the test on NCI-H23, 29.6 µM (inactive). The GI50 in the test with UACC-62 was 25.9 µM (inactive); in the test on HCT-116, 14.4 µM (inactive); in the test with T47D it was 20 µM (inactive); with OVCAR-3 it was 37.4 µM (inactive); in the test with A549 it was 16.4 µM (inactive); in the test on K562 it was 17.7 µM (inactive). Further, the GI50 in the test with NCI-H226 is > 100 µM (inactive); in the test with KM12 it was 19.5 µM (inactive); in the test with COLO 205, 20 µM (inactive); in the test on NCI/ADR-RES, 41.5 µM (inactive); with SF-539, 20.3 µM (inactive); in the test on TK-10, 24.1 µM (inactive).

With `CC(=O)N/N=C1\NC(=O)C[C@H]2[C@@H]3CC=C4C[C@@H](OC(C)=O)CC[C@]4(C)[C@H]3CC[C@]12C`, the GI50 in the test with SK-MEL-2 was 47.5 µM (inactive); in the test on MDA-MB-231, 18.7 µM (inactive); in the test on SK-MEL-5 it was 50.8 µM (inactive); with PC-3 it was 29.9 µM (inactive); in the test with HL-60 it was > 100 µM (inactive); with NCI-H23 it was 49.9 µM (inactive). The GI50 with UACC-62 was 16.8 µM (inactive); in the test with HCT-116 it was 67 µM (inactive); in the test with T47D, > 100 µM (inactive); with OVCAR-3, > 100 µM (inactive); in the test on A549, 34.2 µM (inactive); with K562, > 100 µM (inactive). The GI50 was 23.8 µM (inactive) with NCI-H226; 38.9 µM (inactive) with KM12; 45.3 µM (inactive) in the test with COLO 205; 39.4 µM (inactive) in the test on NCI/ADR-RES; 7.33 µM (inactive) with SF-539; 17.1 µM (inactive) in the test on TK-10.

For the origin of these results see ChEMBL document CHEMBL1201862, “PubChem BioAssay data set” (2004).
